Assay results published in paper PMC5982655, “Interaction of the New Monofunctional Anticancer Agent Phenanthriplatin With Transporters for Organic Cations” (Frontiers in Chemistry, 2018).
“Also recorded” adds a separate entry of the source.

Key:
HEK293 hMATE1 cells = test: MTT cell viability, HEK293 hMATE1 cells; format: cell-based, human; settings: HEK293 hMATE1, 100 μM phenanthriplatin
Procedure: A modified 3-(4,5-dimethylthiazol-2-yl)-2,5-diphenyltetrazolium bromide (MTT) assay (Mosmann, [1983]) was used to test the chemosensitivity of cells to phenanthriplatin and, in some experiments, to cisplatin by determining the glycolysis rate via the reduction of the yellow tetrazolium salt MTT to a purple formazan dye, as previously described (Wehe et al., [2014]). Briefly, after growing for 24 h in the incubator, cells expressing or not hOCT2, hMATE1, hMATE2 or Ctr1 were treated for 10 min with platinum derivatives. Control cells were incubated with drug-free complete cell culture medium. Afterwards, the medium was carefully removed and replaced by 200 μL of fresh complete cell culture medium. After incubation for another 24 h, 10 μL of MTT solution containing 5 mg/mL of the dye were added to each well, and the cells were again incubated for 3 h. The medium was then removed and 100 μL of lysis buffer containing 10% (w/v) sodium dodecyl sulfate and 40% (v/v) dimethylformamide was added to each well. The plates were shaken for 10 min to destroy the cell structure and dissolve the blue formazan dye (Furchert et al., [2007]; Wehe et al., [2014]). Finally, the absorbance was measured at 590 nm using an automated microtiter plate reader (Infinite M200; Tecan, Männedorf, Switzerland). The percentage of viable cells in the untreated controls was compared to that for the various treatments. […]

Ctr1^−/− MEFs = test: MTT cell viability, Ctr1-/- MEFs; format: cell-based, mouse
Procedure: A modified 3-(4,5-dimethylthiazol-2-yl)-2,5-diphenyltetrazolium bromide (MTT) assay (Mosmann, [1983]) was used to test the chemosensitivity of cells to phenanthriplatin and, in some experiments, to cisplatin by determining the glycolysis rate via the reduction of the yellow tetrazolium salt MTT to a purple formazan dye, as previously described (Wehe et al., [2014]). Briefly, after growing for 24 h in the incubator, cells expressing or not hOCT2, hMATE1, hMATE2 or Ctr1 were treated for 10 min with platinum derivatives. Control cells were incubated with drug-free complete cell culture medium. Afterwards, the medium was carefully removed and replaced by 200 μL of fresh complete cell culture medium. After incubation for another 24 h, 10 μL of MTT solution containing 5 mg/mL of the dye were added to each well, and the cells were again incubated for 3 h. The medium was then removed and 100 μL of lysis buffer containing 10% (w/v) sodium dodecyl sulfate and 40% (v/v) dimethylformamide was added to each well. The plates were shaken for 10 min to destroy the cell structure and dissolve the blue formazan dye (Furchert et al., [2007]; Wehe et al., [2014]). Finally, the absorbance was measured at 590 nm using an automated microtiter plate reader (Infinite M200; Tecan, Männedorf, Switzerland). The percentage of viable cells in the untreated controls was compared to that for the various treatments. Experiments carried out with DAOY and UW228 cells followed a similar protocol except that these cells were incubated for 24 h with phenanthriplatin.

N.N.[Cl][Pt+].c1ccc2c(c1)cnc1ccccc12 [phenanthriplatin, cis-[Pt(NH3)2Cl(phenanthridine)]^+]
Cell viability (MTT) (HEK293 hMATE1 cells): induces significant cell toxicity
Cell viability (MTT) (Ctr1^−/− MEFs; 1 mM, 10 min): toxic; also recorded: still present in Ctr1^−/− MEFs even though at lower level than in Ctr1^+/+ MEFs
Cell viability (MTT) (Ctr1^−/− MEFs; lower concentrations (<1 mM)): did not change the cell viability
